Reference: patent EP0933350A1, “Tricyclic retinoids, methods for their production and use” (LIGAND PHARMACEUTICALS INCORPORATED, priority 1994, dated 1996)

Assays:
AML-193 cell line [1] = assay: incorporation of 3H-thymidine (antiproliferative); conditions: Homo sapiens, 96 h, read-out: TdR IC50 (nM)
RARγ = biological target: T1, RARγ (Homo sapiens, UniProt P13631); assay: competitive binding of tritiated retinoids to retinoid receptors; conditions: competition with tritiated retinoid, Cheng-Prussof equation
T1 sequence (P13631 1-454): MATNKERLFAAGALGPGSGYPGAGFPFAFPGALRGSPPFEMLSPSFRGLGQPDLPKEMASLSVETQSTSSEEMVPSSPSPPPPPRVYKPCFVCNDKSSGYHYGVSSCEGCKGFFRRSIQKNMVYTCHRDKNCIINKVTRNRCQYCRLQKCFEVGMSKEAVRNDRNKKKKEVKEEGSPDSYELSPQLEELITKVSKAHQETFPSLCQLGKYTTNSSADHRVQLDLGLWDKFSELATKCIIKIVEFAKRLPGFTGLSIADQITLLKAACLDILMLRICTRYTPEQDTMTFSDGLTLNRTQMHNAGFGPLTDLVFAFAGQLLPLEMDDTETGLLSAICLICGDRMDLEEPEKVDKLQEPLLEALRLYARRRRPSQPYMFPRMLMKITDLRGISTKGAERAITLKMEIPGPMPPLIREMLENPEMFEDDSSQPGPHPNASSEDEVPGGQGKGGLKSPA

RARα [2] = biological target: T2, RARα (Homo sapiens, UniProt P10276); assay: as above; conditions: competition with tritiated retinoid, Cheng-Prussof equation
T2 sequence (P10276 1-462): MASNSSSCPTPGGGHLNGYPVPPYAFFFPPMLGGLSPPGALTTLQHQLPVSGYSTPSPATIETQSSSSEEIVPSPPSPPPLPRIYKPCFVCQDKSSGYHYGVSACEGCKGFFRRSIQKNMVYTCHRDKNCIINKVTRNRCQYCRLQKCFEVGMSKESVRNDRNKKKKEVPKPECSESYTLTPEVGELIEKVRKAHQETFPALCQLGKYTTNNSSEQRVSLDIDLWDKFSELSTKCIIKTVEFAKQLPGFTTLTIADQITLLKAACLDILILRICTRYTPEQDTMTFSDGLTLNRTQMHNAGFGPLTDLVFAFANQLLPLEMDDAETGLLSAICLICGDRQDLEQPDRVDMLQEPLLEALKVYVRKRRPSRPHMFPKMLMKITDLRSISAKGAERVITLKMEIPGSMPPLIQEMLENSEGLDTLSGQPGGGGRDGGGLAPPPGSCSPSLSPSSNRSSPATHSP

RXRγ [3] = biological target: T3, RXRγ (Mus musculus, UniProt P28705); assay: co-transfection assay (RAR/RXR agonist activity, luciferase reporter in CV-1 cells); format: cell-based; conditions: read-out: RXRγ Pot
T3 sequence (P28705 1-463): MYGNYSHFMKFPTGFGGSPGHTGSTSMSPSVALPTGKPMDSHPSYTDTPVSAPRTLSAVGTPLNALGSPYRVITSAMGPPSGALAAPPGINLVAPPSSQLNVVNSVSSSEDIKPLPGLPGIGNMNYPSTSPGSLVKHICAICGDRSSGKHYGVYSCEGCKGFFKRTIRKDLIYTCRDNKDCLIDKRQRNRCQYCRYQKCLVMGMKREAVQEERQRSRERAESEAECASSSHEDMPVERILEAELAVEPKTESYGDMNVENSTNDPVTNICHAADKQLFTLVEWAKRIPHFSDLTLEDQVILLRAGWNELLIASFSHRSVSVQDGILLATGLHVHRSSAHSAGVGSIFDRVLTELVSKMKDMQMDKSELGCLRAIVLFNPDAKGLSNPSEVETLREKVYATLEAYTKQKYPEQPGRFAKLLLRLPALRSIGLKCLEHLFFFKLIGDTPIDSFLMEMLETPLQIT

RXRγ [4] = biological target: T3, RXRγ; assay: competitive binding of tritiated retinoids to retinoid receptors; conditions: competition with tritiated retinoid, Cheng-Prussof equation
ME 180 cell line = assay: viability (tetrazolium dye, mitochondrial function); format: cell-based; conditions: Homo sapiens, 96 hours, read-out: MTS IC50
RPMI 8226 cell line = assay: incorporation of 3H-thymidine (antiproliferative); format: cell-based; conditions: Homo sapiens, 96 hours, radiolabeled thymidine incorporation, read-out: TdR IC50
AML-193 cell line [5] = assay: viability (tetrazolium dye, mitochondrial function); format: cell-based; conditions: Homo sapiens, 96 hours, read-out: MTS IC50
RARα [6] = biological target: T2, RARα; assay: co-transfection assay (RAR/RXR agonist activity, luciferase reporter in CV-1 cells); format: cell-based; conditions: read-out: RARα Pot

Row | Kd (RARγ) [nM] | Kd (RARα [2]) [nM] | EC50 (RXRγ [3]) [nM] | Kd (RXRγ [4]) [nM] | EC50 (RARα [6]) [nM] | Structure (SMILES) | IC50 (AML-193 cell line [1]) [nM] | IC50 (ME 180 cell line) [nM] | IC50 (RPMI 8226 cell line) [nM] | IC50 (AML-193 cell line [5]) [nM]
1 | 541 | 225 | 41 | 48 | 32 | CC(/C=C/C=C1/CCCc2cc3c(cc21)C(C)(C)CCC3(C)C)=C\C(=O)O [Compound 101b, (2E,4E)-3-Methyl-6-[(Z)-3,4,5,6,7,8-hexahydro-5,5,8,8-tetramethyl-2H-anthracen-1-ylidene]hexa-2,4-dienoic acid] | 37 | 75 | 6 | 1000
2 | 279 | 33 | 2270 | 382 | 28 | CC(/C=C/C=C1\CCCc2cc3c(cc21)C(C)(C)CCC3(C)C)=C\C(=O)O [Compound 109b, (2E,4E)-3-Methyl-6-[(E)-3,4,5,6,7,8-hexahydro-5,5,8,8-tetramethyl-2H-anthracen-1-ylidene]hexa-2,4-dienoic acid] | 500 | 100 | 0.05 | 1000
3 | 87 | 24 | 742 | 398 | 20 | CC(/C=C/C=C1\CCOc2cc3c(cc21)C(C)(C)CCC3(C)C)=C\C(=O)O [Compound 119b, (2E,4E)-3-Methyl-6-[(E)-2,3,6,7,8,9-hexahydro-6,6,9,9-tetramethylbenzo[g]chromen-4-ylidene]hexa-2,4-dienoic acid] | 0.6 | 2 | 0.5 | 1000
4 | > 1000 | > 1000 | 301 | 508 | > 10000 | CC(/C=C/CN1CCCCc2cc3c(cc21)C(C)(C)CCC3(C)C)=C\C(=O)O [Compound 138b, (2E,4E)-3-Methyl-6-[7,7,10,10-tetramethyl-2,3,4,5,7,8,9,10-octahydronaphtho[2,3-6]azepinyl)hexa-2,4-dienoic acid] |  |  |  | 
5 | 494 | 145 | 40 | 85 | 14 | CC(/C=C/C=C1/CCOc2cc3c(cc21)C(C)(C)CCC3(C)C)=C\C(=O)O [Compound 144b] | 0.6 | 10 | 0.6 | 1000
